Measured values: ChEMBL document CHEMBL2073960, “Cytotoxic and multidrug resistance reversal activity of a vegetable, 'Anastasia Red', a variety of sweet pepper” (Phytother Res, 2003)

Biological target: ATP-dependent translocase ABCB1 (Homo sapiens, UniProt P08183)
Assay: TP_TRANSPORTER: increase in Rhodamine 123 intracellular accumulation in MDR1 transfected L-5178 mouse T-cell lymphoma cells
Format: functional, cell-based

Sequence of ATP-dependent translocase ABCB1 (P08183 whole entry): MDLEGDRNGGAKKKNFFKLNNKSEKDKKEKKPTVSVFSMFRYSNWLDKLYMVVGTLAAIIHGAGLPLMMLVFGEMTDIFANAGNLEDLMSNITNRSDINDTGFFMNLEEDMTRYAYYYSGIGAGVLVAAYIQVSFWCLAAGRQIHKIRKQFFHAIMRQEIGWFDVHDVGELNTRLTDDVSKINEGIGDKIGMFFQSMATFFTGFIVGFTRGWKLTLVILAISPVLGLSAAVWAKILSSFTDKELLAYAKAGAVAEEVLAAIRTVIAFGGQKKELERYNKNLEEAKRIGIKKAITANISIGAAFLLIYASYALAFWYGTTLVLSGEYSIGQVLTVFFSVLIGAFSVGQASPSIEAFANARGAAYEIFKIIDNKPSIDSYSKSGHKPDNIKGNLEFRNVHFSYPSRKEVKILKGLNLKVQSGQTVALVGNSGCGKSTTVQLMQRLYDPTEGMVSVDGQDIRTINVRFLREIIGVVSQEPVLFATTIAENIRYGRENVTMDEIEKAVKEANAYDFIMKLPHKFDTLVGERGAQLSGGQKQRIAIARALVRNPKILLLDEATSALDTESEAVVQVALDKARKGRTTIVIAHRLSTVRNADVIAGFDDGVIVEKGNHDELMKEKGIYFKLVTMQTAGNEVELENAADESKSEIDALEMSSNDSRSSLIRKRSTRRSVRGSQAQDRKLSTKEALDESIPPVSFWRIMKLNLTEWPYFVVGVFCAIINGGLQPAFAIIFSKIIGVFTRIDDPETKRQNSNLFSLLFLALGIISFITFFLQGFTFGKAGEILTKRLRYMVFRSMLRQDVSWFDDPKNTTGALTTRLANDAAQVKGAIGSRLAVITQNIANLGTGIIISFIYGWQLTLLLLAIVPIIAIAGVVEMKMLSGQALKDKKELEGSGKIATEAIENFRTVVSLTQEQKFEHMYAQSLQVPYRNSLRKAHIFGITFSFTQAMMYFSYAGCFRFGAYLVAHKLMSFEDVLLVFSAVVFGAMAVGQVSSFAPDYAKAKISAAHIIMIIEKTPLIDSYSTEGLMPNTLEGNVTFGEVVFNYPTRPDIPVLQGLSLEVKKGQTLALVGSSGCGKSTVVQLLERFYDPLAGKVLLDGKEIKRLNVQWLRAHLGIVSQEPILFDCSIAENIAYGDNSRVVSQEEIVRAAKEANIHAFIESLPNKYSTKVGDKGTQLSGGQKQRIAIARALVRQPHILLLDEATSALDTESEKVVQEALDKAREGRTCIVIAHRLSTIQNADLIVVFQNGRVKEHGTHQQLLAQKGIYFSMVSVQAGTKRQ

- Activity: inhibitor [+]
Sequence: ANASTASIA RED EXTRACTS
